Source: patent US6756387B2, “Hydroxyphenyl-piperidin-4-ylidene-methyl-benzamide derivatives for the treatment of pain” (AstraZeneca AB, priority 2000, dated 2004)

Columns and labels:
Type in all cases: biochemical
[1] = biological target: T1, delta receptors, rat brain membranes (Rattus norvegicus, UniProt P33533); test: GTP[γ]35S binding functional assay, homogenised rat brain; settings: rat brain homogenate, read-out: RAT BRAIN % E Max
T1 construct: from tissue; host or cells: rat brain homogenate
T1 sequence (P33533 whole entry): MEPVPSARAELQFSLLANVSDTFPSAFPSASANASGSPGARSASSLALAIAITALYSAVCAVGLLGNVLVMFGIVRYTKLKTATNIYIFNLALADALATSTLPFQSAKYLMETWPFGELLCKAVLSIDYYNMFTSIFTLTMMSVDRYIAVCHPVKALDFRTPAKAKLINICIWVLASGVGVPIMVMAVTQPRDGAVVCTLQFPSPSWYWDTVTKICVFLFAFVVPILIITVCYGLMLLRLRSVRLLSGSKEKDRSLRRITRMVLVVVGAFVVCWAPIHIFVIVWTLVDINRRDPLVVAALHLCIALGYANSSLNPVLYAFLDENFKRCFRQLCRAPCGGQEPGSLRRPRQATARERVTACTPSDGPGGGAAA
Experimental: (§1) B. Mouse and rat brains were weighed and rinsed in ice-cold PBS (containing 2.5 mM EDTA, pH 7.4). The brains were homogenized with a polytron for 15 sec (mouse) or 30 sec (rat) in ice-cold lysis buffer (50 mM Tris, pH 7.0, 2.5 mM EDTA, with phenylmethylsulfonyl fluoride added just prior use to […] from a 0.5M stock in DMSO:ethanol).
(§2) The agonist activity of the compounds is measured by determining the degree to which the compounds receptor complex activates the binding of GTP to G-proteins to which the receptors are coupled. In the GTP binding assay, GTP[γ]^35S is combined with test compounds and membranes from HEK-293S cells expressing the cloned human opioid receptors or from homogenised rat and mouse brain. Agonists stimulate GTP[γ]^35S binding in these membranes. The EC50 and Emax values of compounds are determined from dose-response curves. Right shifts of the dose response curve by the delta antagonist naltrindole are performed to verify that agonist activity is mediated through delta receptors.

[2] = biological target: T2, delta receptors, mouse brain membranes (Mus musculus, UniProt P32300); test: GTP[γ]35S binding functional assay, homogenised mouse brain; settings: mouse brain homogenate, read-out: MOUSE BRAIN % E Max
T2 construct: from tissue; host or cells: mouse brain homogenate
T2 sequence (P32300 whole entry): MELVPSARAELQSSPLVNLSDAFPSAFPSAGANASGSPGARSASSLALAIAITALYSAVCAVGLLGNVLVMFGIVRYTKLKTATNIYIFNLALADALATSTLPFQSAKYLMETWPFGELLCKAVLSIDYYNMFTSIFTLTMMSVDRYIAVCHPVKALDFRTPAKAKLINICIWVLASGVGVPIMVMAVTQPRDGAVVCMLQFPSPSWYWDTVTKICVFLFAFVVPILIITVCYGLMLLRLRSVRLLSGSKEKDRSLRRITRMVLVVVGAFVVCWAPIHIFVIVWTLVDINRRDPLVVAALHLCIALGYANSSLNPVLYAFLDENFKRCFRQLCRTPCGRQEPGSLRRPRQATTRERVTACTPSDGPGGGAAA
Experimental: as §1, §2

[3] = biological target: T3, cloned human δ receptor (HDELTA) (Homo sapiens, UniProt P41143); test: GTP[γ]35S binding functional assay, membranes from HEK-293S cells expressing cloned human opioid receptors; settings: HEK-293S membranes, read-out: HDELTA % E Max
T3 construct: expressed in transfected cells; host or cells: human 293S (HEK-293S) cells, geneticin-selected
T3 sequence (P41143 whole entry): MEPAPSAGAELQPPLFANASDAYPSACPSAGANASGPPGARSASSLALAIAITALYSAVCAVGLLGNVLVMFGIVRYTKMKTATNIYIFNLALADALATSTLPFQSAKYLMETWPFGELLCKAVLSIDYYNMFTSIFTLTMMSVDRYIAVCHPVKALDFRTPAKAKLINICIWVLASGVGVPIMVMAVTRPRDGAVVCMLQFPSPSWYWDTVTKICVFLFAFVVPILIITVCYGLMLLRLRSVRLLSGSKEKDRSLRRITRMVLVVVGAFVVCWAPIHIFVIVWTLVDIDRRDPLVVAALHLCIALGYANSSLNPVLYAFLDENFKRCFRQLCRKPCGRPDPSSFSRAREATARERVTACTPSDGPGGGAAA
Experimental: A. Human 293S cells expressing cloned human μ, δ, and κ receptors and neomycin resistance were grown in suspension at 37° C. and 5% CO2 in shaker flasks containing calcium-free DMEM10% FBS, 5% BCS, 0.1% Pluronic F-68, and 600 μg/ml geneticin.
Cells were pelleted and resuspended in lysis buffer (50 mM Tris, pH 7.0, 2.5 mM EDTA, with PMSF added just prior to use to 0.1 mM from a 0.1 M stock in ethanol), incubated on ice for 15 min, then homogenized with a polytron for 30 sec. The suspension was spun at 1,000 g (max) for 10 min at 4° C. The supernatant was saved on ice and the pellets resuspended and spun as before. The supernatants from both spins were combined and spun at 46,000 g(max) for 30 min. The pellets were resuspended in cold Tris buffer (50 mM Tris/Cl, pH 7.0) and spun again. The final pellets were resuspended in membrane buffer (50 mM Tris, 0.32 M sucrose, pH 7.0). Aliquots (1 ml) in polypropylene tubes were frozen in dry ice/ethanol and stored at −70° C. until use. The protein concentrations were determined by a modified Lowry assay with SDS.
as §2

Structure (SMILES) | Emax [1] | Emax [2] | Emax [3]
CCN(CC)C(=O)c1ccc(C(=C2CCN(Cc3ccccc3)CC2)c2cccc(O)c2)cc1 [Example 2, N,N-diethyl-4-(3-hydroxylphenyl-N-benzyl-piperidin-4-ylidene-methyl)-benzamide] | 112% | 104% | 104%
CCN(CC)C(=O)c1ccc(C(=C2CCN(Cc3cccs3)CC2)c2cccc(O)c2)cc1 [Example 3, N,N-diethyl-4-{(3-hydroxyphenyl)[1-(2-thienylmethyl)-4-piperidinylidene]methyl}benzamide] | 168% | 186% | 98.2%
CCN(CC)C(=O)c1ccc(C(=C2CCN(Cc3ccco3)CC2)c2cccc(O)c2)cc1 [Example 5, N,N-diethyl-4-[[1-(2-furylmethyl)-4-piperidinylidene](3-hydroxyphenyl)methyl]benzamide] | 132% | 134% | 94.8%
CCN(CC)C(=O)c1ccc(C(=C2CCN(Cc3ccccn3)CC2)c2cccc(O)c2)cc1 [Example 7, N,N-diethyl-4-{(3-hydroxyphenyl)[1-(2-pyridinylmethyl)-4-piperidinylidene]methyl}benzamide] | 135% | 138% | 103%
CCN(CC)C(=O)c1ccc(C(=C2CCN(Cc3ccncc3)CC2)c2cccc(O)c2)cc1 [Example 8, N,N-diethyl-4-{(3-hydroxyphenyl)[1-(4-pyridinylmethyl)-4-piperidinylidene]methyl}benzamide] | 81.4% | 78.2% | 112%
CCN(CC)C(=O)c1ccc(C(=C2CCN(Cc3ncc[nH]3)CC2)c2cccc(O)c2)cc1 [Example 9, N,N-diethyl-4-{(3-hydroxyphenyl)[1-(1H-imidazol-2-ylmethyl)-4-piperidinylidene]methyl}benzamide] | 151% | 136% | 106%
CCN(CC)C(=O)c1ccc(C(=C2CCN(Cc3c[nH]cn3)CC2)c2cccc(O)c2)cc1 [Example 10, N,N-diethyl-4-{(3-hydroxyphenyl)[1-(1H-imidazol-4-ylmethyl)-4-piperidinylidene]methyl}benzamide] | 102% | 104% | 107%
CCN(CC)C(=O)c1ccc(C(=C2CCN(Cc3nccs3)CC2)c2cccc(O)c2)cc1 [Example 11, N,N-diethyl-4-{(3-hydroxyphenyl)[1-(1,3-thiazol-2-ylmethyl)-4-piperidinylidene]methyl}benzamide] | 120% | 118% | 115%
